Patent US20020137891A1, “Protein scaffold and its use to multimerise monomeric polypeptides” (priority 1999, published 2002)
pKd: −log10 of the molar value.

Key:
E. coli SV2 groEL44 = test: In vivo complementation of thermosensitive groEL mutant at 43° C., strain SV2; assay type: cell-based; settings: pJC plasmid, relative to growth at 30° C.
Description: (§1) In vivo complementation experiments. Complementation experiments were performed by transforming electro-competent SV2 or SV6 cells with the pJC series of expression vectors and plating an aliquot of the transformation reactions directly at 43° C. The percentage of viable cells relative to the growth at 30° C. was determined. A representative number of clones which grew at 43° C. were incubated in absence of any selective markers at permissive temperature. After prolonged growth the loss of the pJC plasmids and the ts phenotype were verified. Each experiment was performed in duplicate. Plasmids carrying no groE genes or encoding the GroE proteins were used as negative or positive controls, respectively.

E. coli SV6 groEL673 = test: In vivo complementation of thermosensitive groEL mutant at 43° C., strain SV6; assay type: cell-based; settings: pJC plasmid, relative to growth at 30° C.
Description: as §1

anti-GroEL antibodies = test: Anti-GroEL antibodies binding by ELISA; set-up: species or system rabbit; settings: direct and indirect ELISA, different concentrations of antibodies, FIG. 6
Description: Anti-GroEL antibodies binding by ELISA. The same amount of proteins (1 μg) were coated as described above. […] ELISAs were developed as described above.

bacteriophage T4 (T4D0) = test: Growth (plaque formation) of bacteriophage T4 at 37° C. in transformed wild-type and groEL mutant strains; assay type: cell-based, E. coli; set-up: key: +++: normal plaque-forming ability relative to wild-type groEL^+ strain, in terms of both number and size; ++: 5-fold fewer plaques relative to wild-type groEL^+ strain, or both; 10-fold fewer plaques, or plaque size reduced relative to wild-type groEL^+ strain, or both; +/−: 10^2-fold fewer plaques and plaque size reduced relative to wild-type groEL^+ strain; no visible plaques (<10^−4); settings: pJC plasmid
Text: Bacterial and bacteriophage strains. The E. coli strains used in this study were: C41(DE3), a mutant of BL21(DE3) capable of expressing toxic genes (Miroux, B. & Walker, J. E. (1996) J. Mol. Biol. 260, 289-298); SV2 (B178groEL44), SV3 (B178groEL59) and SV6 (B178groEL673): isogenic strains carrying temperature-sensitive alleles of groEL; SV1(=B178) (Georgopoulos, C., Hendrix, R. W., Casjens, S. R. & Kaiser, A. D. (1973) J. Mol. Biol. 76, 45-60), AI90 (ΔgroEL::kan^R) [pBAD-EL] (Ivic, A., Olden, D., Wallington, E. J. & Lund, P. A. (1997) Gene 194, 1-8), and TG1 (Gibson, T. J. (1984) Ph.D. thesis, University of Cambridge, U.K). Bacteriophage λb2cI (Zeilstra-Ryalls, J., Fayet, O., Baird, L. & Georgopoulos, C. (1993) J. Bacteriol. 175, 1134-1143) was used according to standard methods (Arber, W., Enquist, L., Hohn, B., Murray, N. E. & Murray, K. (1983) in Lambda II., ed. R. W. Hendrix, J. W. r., F. W. Stahl and R. A. Weisberg (Cold Spring Harbor Laboratory, Cold Spring Harbor, N.Y.), pp. 433-466); plaque formation was assayed at 30° C. T4D0, a derivative of bacteriophage T4 (Zeilstra-Ryalls, J., Fayet, O., Baird, L. & Georgopoulos, C. (1993) J. Bacteriol. 175, 1134-1143), was used according to standard methods (Karam, J. D. (1994) Molecular biology of bacteriophage T4. (American Society for Microbiology, Washington, D.C.)); plaque formation was assayed at 37° C.
Bacteriophage λ requires the chaperonins GroES and GroEL for protein folding during morphogenesis; bacteriophage T4 requires GroEL and Gp31, the latter being encoded by the bacteriophage genome (Zeilstra-Ryalls, J., Fayet, O. & Georgopoulos, C. (1991) Annu. Rev. Microbiol. 45, 301-325). Nine groE alleles which fail to support λ growth have been sequenced (Zeilstra-Ryalls, J., Fayet, O., Baird, L. & Georgopoulos, C. (1993) J. Bacteriol. 175, 1134-1143). We examined the ability of MC7, over-expressed from the constitutive tet promoter on a high-copy number vector (see FIG. 2), to complement three mutant groEL alleles for plaque formation by λ (b2cI) at 30° C. (Table 3) and T4 at 37° C. (Table 4).

GroES = GroES (Escherichia coli, UniProt P0A6F9); settings: read-out: apparent dissociation constant for the formation of the GroEL-GroES complex; cited from earlier work
[1] = test system: Lorist6 (bacteriophage λ origin vector); test: Effect of over-expression on Lorist6 replication; assay type: cell-based, E. coli; settings: over-expression from pJC vectors in TG1 or SV1
Description: Effect on Lorist6 replication of over-expressing of MC7. The effect of over-expressing Gp31 proteins from pJC vector series on the replication of the bacteriophage λ origin vector, Lorist6 (Gibson, T. J., Rosenthal, A. & Waterston, R. H. (1987) Gene 53, 283-286) in TG1 (Gibson, T. J. (1984) Ph.D. thesis, University of Cambridge, U.K) or SV1 (Georgopoulos, C., Hendrix, R. W., Casjens, S. R. & Kaiser, A. D. (1973) J. Mol. Biol. 76, 45-60) cells was determined essentially as described (Chatellier, J., Hill, F., Lund, P. & Fersht, A. R. (1998) Proc. Natl. Acad. Sci. U.S.A. 95, 9861-9866).

[2] = test system: mutant Huntingdon exon 1-expressing PC12 and SH-SY5Y cells; test: Inclusion formation and cell death in mutant Huntingdon exon 1-expressing cells on overexpression of chaperones; assay type: cell-based
Text: These phenomena have been studied by transiently transfecting part of Huntingdon exon 1 in COS-7, PC12, and SH-SY5Y cells. Inclusion formation was not seen with constructs expressing 23 glutamines but was repeat length and time dependent for mutant constructs with 43-74 repeats. HSP70, HSP40, the 20S proteasome and ubiquitin colocalized with inclusions. […] Thus, inclusion formation may be enhanced in polyglutamine diseases, if the pathological process results in proteasome inhibition or a heat-shock response. […] To our knowledge, this is the first report of an HSP increasing aggregation of an abnormally folded protein in mammalian cells and expands the current understanding of the roles of HDJ-2yHSDJ in protein folding (See Wyttenbach, A. et al. (2000) Proc. Natl. Acad. Sci. USA 97, 2899-2903).
We have tested MC72 in the same system.

Chain of GroES (P0A6F9 whole entry): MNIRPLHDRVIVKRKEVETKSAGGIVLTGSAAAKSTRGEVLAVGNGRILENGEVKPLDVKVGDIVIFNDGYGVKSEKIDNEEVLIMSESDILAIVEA

GroEL (1-548): E. coli molecular chaperone, 14 subunits of 57.5 kD in two seven membered rings [reference compound]
Relative colony forming ability, SV2 groEL44 (E. coli SV2 groEL44): 1 | Relative colony forming ability, SV6 groEL673 (E. coli SV6 groEL673): 1 | Detection by antibodies specific to GroEL (anti-GroEL antibodies): comparable detection levels | Growth of bacteriophage T4, SV1 (groEL^+) (bacteriophage T4 (T4D0)): +++ | Growth of bacteriophage T4, SV2 groEL44 (bacteriophage T4 (T4D0)): +++ | Growth of bacteriophage T4, SV3 groEL59 (bacteriophage T4 (T4D0)): +++ | Growth of bacteriophage T4, SV6 groEL673 (bacteriophage T4 (T4D0)): +++ | pKd (GroES): 6.00 | Replication of the Lorist6 plasmid [1]: inhibit the replication of the Lorist6 plasmid | cell death [2]: had no effect | inclusion formation [2]: had no effect
